For one experiment, the target named is T1, vasopressin V1a receptor (Homo sapiens, UniProt P37288).
T1 construct: host or cells: CHO cells (hV1a cell line), whole adherent cells
In words: Inhibition of phosphatidylinositol turnover. The experiment is classed as cell-based. Particulars: vasopressin-mediated turnover of phosphatidylinositol, hV1a cells. From the text:
Inhibition of phosphatidylinositol turnover. The physiological effects of vasopressin are mediated through specific G-protein coupled receptors. The vasopressin V1a receptor is coupled to the Gq/G11 family of G proteins and mediates phosphatidylinositol turnover. The agonist or antagonist character of the compounds of the invention may be determined by their ability to inhibit vasopressin-mediated turnover of phosphatidylinositol by the procedure described in the following paragraphs.
Cell culture and labeling of cells. Three days prior to the assay, near-confluent cultures of hV1a cells were dissociated and seeded in 6-well tissue culture plates, about 100 wells being seeded from each 75 cm^2 flask (equivalent to 12:1 split ratio).
Incubations. All assays were in triplicate except for basal and 10 nM AVP (both n=6). AVP ((arginine vasopressin), Peninsula Labs, Belmont, Calif., USA (#8103)) was dissolved in 0.1N acetic acid. Test agents were dissolved in DMSO and diluted in DMSO to 200 times the final test concentration. […] The order of incubations was randomized. Incubations were initiated by removing the prelabeling medium, washing the monolayer once with 1 mL of 0.9% NaCl, and transferring the contents of the assay tubes to corresponding wells. The plates were incubated for 1 hour at 37° C. Incubations were terminated by removing the incubation medium and adding 500 μL of ice cold 5% (w/v) trichloroacetic acid and allowing the wells to stand for 15 min.
Measurement of [^3H]inositol phosphates. BioRad Poly-Prep Econo-Columns were packed with 0.3 mL of AG 1 X-8 100-200 formate form resin. Resin was mixed 1:1 with water and 0.6 mL added to each column. Columns were then washed with 10 mL water. Scintillation vials (20 mL) were placed under each column. For each well, the contents were transferred to a minicolumn, after which the well was washed with 0.5 mL distilled water, which was also added to the minicolumn. The columns were then washed twice with 5 mL of 5 mM myo-inositol to elute free inositol. Aliquots (1 mL) were transferred to 20 mL scintillation vials and 10 mL of Beckman Ready Protein Plus added. After the myo-inositol wash was complete, empty scintillation vials were placed under the columns, and [^3H]inositol phosphates were eluted with three additions of 1 mL 0.5 M ammonium formate containing 0.1 N formic acid. Elution conditions were optimized to recover inositol mono-, bis-, and trisphosphates, without eluting the more metabolically inert tetrakis-, pentakis-, and hexakis-phosphates. To each sample was added 10 mL of a high salt capacity scintillation fluid such as Tru-Count High Salt Capacity or Packard Hionic-Fluor. Inositol lipids were measured by adding 1 mL of 2% sodium dodecyl sulfate (SDS) to each well, allowing the wells to stand for at least 30 min., and transferring the solution to 20 mL scintillation vials, to which 10 mL Beckman Ready Protein Plus scintillation fluid was then added. Samples were counted in a Beckman LS 3801 liquid scintillation counter for 10 min. Total inositol incorporation for each well was calculated as the sum of free inositol, inositol phosphates, and inositol lipids.
Data analysis: concentration-inhibition experiments. Concentration-response curves for AVP and concentration-inhibition curves for test agents versus 10 nM AVP were analyzed by nonlinear least-squares curve-fitting to a 4-parameter logistic function. Parameters for basal and maximal inositol phosphates, EC50 or IC50, and Hill coefficient were varied to achieve the best fit. The curve-fitting was weighted under the assumption that the standard deviation was proportional to dpm of radioactivity. Full concentration-response curves for AVP were run in each experiment, and IC50 values were converted to Ki values by application of the Cheng-Prusoff equation, based on the EC50 for AVP in the same experiment. Inositol phosphates were expressed as dpm per 10^6 dpm of total inositol incorporation.

Another experiment deals with V1a (Homo sapiens, UniProt P37288). In words: Human vasopression V1a receptor binding assay. Set-up: host or cells: CHO cells (hV1a cell line), whole adherent cells. To be noted: hV1a cell line (CHO); for Ki: Table 18; for IC50: 1 nM 3H-AVP, Table 17, read-out: V1a Binding Affinity (IC50 (nM)). Put shortly:
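Whole CHO cells stably expressing human V1a receptor competed 1 nM 3H-AVP against 10-fold serial compound dilutions (DMSO) in pH 7.0 Hepes/BSA/DMEM buffer, 45 min at 37° C.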

Sequence of V1a (P37288 whole entry): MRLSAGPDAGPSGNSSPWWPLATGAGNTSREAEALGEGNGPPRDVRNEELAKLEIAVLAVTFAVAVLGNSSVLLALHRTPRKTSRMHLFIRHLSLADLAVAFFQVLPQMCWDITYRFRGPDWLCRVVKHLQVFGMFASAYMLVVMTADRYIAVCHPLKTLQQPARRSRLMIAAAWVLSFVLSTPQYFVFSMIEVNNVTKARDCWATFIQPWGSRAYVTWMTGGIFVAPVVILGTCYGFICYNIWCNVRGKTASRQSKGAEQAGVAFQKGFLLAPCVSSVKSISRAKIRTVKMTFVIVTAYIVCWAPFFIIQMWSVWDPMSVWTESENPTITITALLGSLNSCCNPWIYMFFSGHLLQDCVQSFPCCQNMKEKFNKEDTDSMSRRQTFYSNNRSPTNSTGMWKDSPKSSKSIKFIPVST
T1 sequence (P37288 whole entry): as above

The term Ki denotes the equilibrium dissociation constant of an inhibitor or competing ligand from its target. Lower therefore signals higher affinity. `O=C(NCc1cccc(C(F)(F)F)c1)C(CCC(=O)N1CCN(CCc2ccccc2)CC1)N1C(=O)C(N2C(=O)OCC2c2ccccc2)C1C=Cc1ccccc1` (single isomer, unassigned) [Example 35]: the “agonist or antagonist character” value on vasopressin V1a receptor is recorded as “vasopressin V1a antagonists”. At V1a, this molecule registered a Ki of 1.17 nM.

In the case of `O=C(NCc1cccc(C(F)(F)F)c1)C(CCC(=O)N1CCN(C2CCCCC2)CC1)N1C(=O)C(N2C(=O)OCC2c2ccccc2)C1C=Cc1ccccc1` (single isomer, unassigned) [Example 110], at vasopressin V1a receptor, the “agonist or antagonist character” value is “vasopressin V1a antagonists”. Further, on V1a, the inhibitory constant (Ki) was 0.27 nM.

Take `O=C(NCc1cccc(C(F)(F)F)c1)[C@H](CC(=O)N1CCC(N2CCCCC2)CC1)N1C(=O)[C@@H](N2C(=O)OC[C@@H]2c2ccccc2)[C@H]1/C=C/c1ccccc1` [Example 44]: the “agonist or antagonist character” value at vasopressin V1a receptor is given as “vasopressin V1a antagonists”. For the same molecule, the affinity on V1a corresponds to a Ki of 1.89 nM.

By IC50 is commonly meant the concentration needed to halve the response being measured. Regarding `O=C(NCc1cccc(C(F)(F)F)c1)[C@H](CCC(=O)N1CCC(N2CCCCC2)CC1)N1C(=O)[C@@H](N2C(=O)OC[C@@H]2c2ccccc2)[C@H]1/C=C/c1ccccc1` [Example 88], the “agonist or antagonist character” value on vasopressin V1a receptor was “vasopressin V1a antagonists”. Moreover, on V1a, the IC50 is 2.4 nM and the Ki amounted to 1.45 nM.

With `O=C(NCc1cccc(C(F)(F)F)c1)[C@@H](CC(=O)N1CCC(N2CCCCC2)CC1)N1C(=O)[C@@H](N2C(=O)OC[C@@H]2c2ccccc2)[C@H]1/C=C/c1ccccc1` [Example 133], the “agonist or antagonist character” value on vasopressin V1a receptor is “vasopressin V1a antagonists”. On V1a, this molecule yielded a Ki of 1.49 nM.

Take `O=C(N[C@H]1CCc2ccccc21)[C@H](CCC(=O)N1CCN(C2CCCCC2)CC1)N1C(=O)[C@@H](N2C(=O)OC[C@@H]2c2ccccc2)[C@H]1/C=C/c1ccccc1` [Example 221R]: on V1a, the IC50 was found to be 5.13 nM and the affinity corresponds to a Ki of 3.14 nM.

In the case of `O=C(N[C@@H]1CCc2ccccc21)[C@H](CCC(=O)N1CCN(C2CCCCC2)CC1)N1C(=O)[C@@H](N2C(=O)OC[C@@H]2c2ccccc2)[C@H]1/C=C/c1ccccc1` [Example 221S], at V1a, the half-maximal inhibitory concentration (IC50) was 5.03 nM and the inhibition constant (Ki) is 3.08 nM.

`O=C(CC[C@@H](C(=O)N[C@@H]1CCCc2ccccc21)N1C(=O)[C@@H](N2C(=O)OC[C@@H]2c2ccccc2)[C@H]1/C=C/c1ccccc1)NCCN1CCCCC1` [Example 221X]: at V1a, the IC50 stood at 11.6 nM and the inhibition constant (Ki) turned out to be 7.2 nM.

Take `O=C(N[C@@H]1CCCc2ccccc21)[C@H](CCC(=O)N1CCC[C@H]1CN1CCCC1)N1C(=O)[C@@H](N2C(=O)OC[C@@H]2c2ccccc2)[C@H]1/C=C/c1ccccc1` [Example 221Y]: at V1a, the concentration for half-maximal inhibition (IC50) came out at 7.6 nM and affinity was put at a Ki of 4.7 nM.

On to `Cc1ccccc1C(C)(C)NC(=O)[C@H](CCC(=O)N1CCN(C2CCCCC2)CC1)N1C(=O)[C@@H](N2C(=O)OC[C@@H]2c2ccccc2)[C@H]1/C=C/c1ccccc1` [Example 221], for which the IC50 at V1a stood at 5.1 nM.

With `O=C(NCc1cccc(C(F)(F)F)c1)[C@H](CCC(=O)N1CCN(C2CCCCC2)CC1)N1C(=O)[C@@H](N2C(=O)OC[C@@H]2c2ccccc2)[C@H]1/C(Cl)=C/c1ccccc1` [Example 226], on V1a, the IC50 was 0.49 nM and the Ki was 0.3 nM.

Turning to `CCN1CCN(C(=O)CC[C@@H](C(=O)NCc2cccc(C(F)(F)F)c2)N2C(=O)[C@@H](N3C(=O)OC[C@@H]3c3ccccc3)[C@H]2/C(Cl)=C/c2ccccc2)CC1` [Example 228], on V1a, the half-maximal inhibitory concentration (IC50) was determined as 13.6 nM and the inhibitory constant (Ki) was 8.35 nM.

For `CCCCN1CCN(C(=O)CC[C@@H](C(=O)NCc2cccc(C(F)(F)F)c2)N2C(=O)[C@@H](N3C(=O)OC[C@@H]3c3ccccc3)[C@H]2/C(Cl)=C/c2ccccc2)CC1` [Example 229], on V1a, the half-maximal inhibitory concentration (IC50) came to 1.53 nM and affinity was put at a Ki of 0.94 nM.

As for `O=C(CC[C@@H](C(=O)NCc1cccc(C(F)(F)F)c1)N1C(=O)C(N2C(=O)OC[C@@H]2c2ccccc2)C1/C(F)=C/c1ccccc1)NC1CN2CCC1CC2` (stereo partly drawn) [Example 230F], the IC50 on V1a is about 100 nM.

For `CCCCN1CCN(C(=O)CC[C@@H](C(=O)NCc2cccc(C(F)(F)F)c2)N2C(=O)C(N3C(=O)OC[C@@H]3c3ccccc3)C2/C(Br)=C/c2ccccc2)CC1` (stereo partly drawn) [Example 230L], on V1a, the IC50 was 12.7 nM and affinity was put at a Ki of 7.8 nM.

As to `CC(C)N1CCN(C(=O)CC[C@@H](C(=O)NCc2cccc(C(F)(F)F)c2)N2C(=O)[C@@H](N3C(=O)OC[C@@H]3c3ccccc3)[C@H]2/C(Cl)=C/c2ccccc2)CC1` [Example 230], on V1a, the half-maximal inhibitory concentration (IC50) stood at 7.07 nM and the Ki was 4.33 nM.

For the molecule `COc1ccccc1C=CC1C(N2C(=O)OCC2c2ccccc2)C(=O)N1C(CC(=O)N1CCC(N2CCCCC2)CC1)C(=O)NCc1cccc(C(F)(F)F)c1` [Example 231, 2(R)-[[4-(Piperidinyl)piperidinyl]carbonylmethyl]-2-[3(S)-(4(S)-phenyloxazolidin-2-on-3-yl)-4(R)-(2′-methoxystyr-2-yl)azetidin-2-on-1-yl]acetic acid N-(3-trifluoromethylbenzyl)amide], at V1a, the concentration for half-maximal inhibition (IC50) turned out to be 6.12 nM and the Ki was found to be 3.75 nM.

In the case of `O=C([C@@H](COCc1ccccc1)N1C(=O)[C@@H](N2C(=O)OC[C@@H]2c2ccccc2)[C@H]1/C=C/c1ccccc1)N1CCC(N2CCCCC2)CC1` [Example 232], at V1a, the IC50 turned out to be 1.37 nM and affinity was put at a Ki of 0.84 nM.

Take `O=C([C@@H](COCc1ccccc1)N1C(=O)[C@@H](N2C(=O)OC[C@@H]2c2ccccc2)[C@H]1/C=C/c1ccccc1)N1CCC(CCN2CCCCC2)CC1` [Example 233]: on V1a, the IC50 turned out to be 0.56 nM and the inhibition constant Ki stood at 0.34 nM.

As to `C[C@@]1(N2C(=O)OC[C@@H]2c2ccccc2)C(=O)N([C@H](CC(=O)N2CCC(N3CCCCC3)CC2)C(=O)NCc2cccc(C(F)(F)F)c2)[C@@H]1/C=C/c1ccccc1` [Example 234A, 4-(Piperidinyl)-piperidinyl 3(R)-[3(S)-(4(S)-phenyloxazolidin-2-on-3-yl)-3-methyl-4(R)-(styr-2-yl)azetidin-2-on-1-yl]-3-[(3-trifluoromethyl)phenylmethylaminocarbonyl]propanoic acid], at V1a, the IC50 is 8.6 nM and the Ki is 5.25 nM.

For the molecule `O=C(C[C@@H](C(=O)NCc1cccc(C(F)(F)F)c1)N1C(=O)[C@@H](N2C(=O)OC[C@@H]2c2ccccc2)[C@H]1CCc1ccccc1)NC1CCN(Cc2ccccc2)CC1` [Example 235, 2(S)-[[(1-Benzylpiperidin-4-yl)amino]carbonylmethyl]-2-[3(S)-(4(S)-phenyloxazolidin-2-on-3-yl)-4(R)-(2-phenyleth-1-yl)azetidin-2-on-1-yl]acetic acid N-(3-trifluoromethylbenzyl)amide], on V1a, the IC50 stood at 37 nM and the inhibition constant Ki stood at 23 nM.

In the case of `O=C(NCc1cccc(C(F)(F)F)c1)[C@H](CCC(=O)N1CCN(C2CCCCC2)CC1)N1C(=O)[C@@H](N2C(=O)OC[C@@H]2c2ccccc2)[C@H]1CCc1ccccc1` [Example 236, (2S)-[(4-cyclohexylpiperazinyl)carbonylethyl]-2-[3(S)-(4(S)-phenyloxazolidin-2-on-3-yl)-4(R)-(2-phenyleth-1-yl)azetidin-2-on-1-yl]acetic acid N-(3-trifluoromethylbenzyl)amide], at V1a, the IC50 came to 1.68 nM and the affinity corresponds to a Ki of 1.03 nM.

Regarding “(2S)-[(4-cyclohexylpiperazinyl)carbonylethyl]-2-[3(S)-(4(S)-phenyloxazolidin-2-on-3-yl)-4(R)-(2-phenyleth-1-yl)azetidin-2-on-1-yl]acetic acid N—[(R)-1,2,3,4-tetrahydronaphth-1-yl]amide [Example 236A]”, at V1a, the IC50 stood at 9 nM and the inhibitory constant (Ki) was 5.5 nM.

The values are drawn from patent publication US9597314B2, “Beta-lactamylalkanoic acids for treating premenstrual disorders” (AZEVAN PHARMACEUTICALS, INC., priority 2005, dated 2017).
